From paper doi:10.1101/2025.03.24.644576v1 (biorxiv, 2025)

Key:
AmRDL receptor [1] = target: T1, AmRDL receptor (Apis mellifera, UniProt A0A8U0Y4W2, F191A); experiment: two-electrode voltage clamp, Xenopus oocytes; assay type: cell-based
T1 sequence (A0A8U0Y4W2 19-476 F191A): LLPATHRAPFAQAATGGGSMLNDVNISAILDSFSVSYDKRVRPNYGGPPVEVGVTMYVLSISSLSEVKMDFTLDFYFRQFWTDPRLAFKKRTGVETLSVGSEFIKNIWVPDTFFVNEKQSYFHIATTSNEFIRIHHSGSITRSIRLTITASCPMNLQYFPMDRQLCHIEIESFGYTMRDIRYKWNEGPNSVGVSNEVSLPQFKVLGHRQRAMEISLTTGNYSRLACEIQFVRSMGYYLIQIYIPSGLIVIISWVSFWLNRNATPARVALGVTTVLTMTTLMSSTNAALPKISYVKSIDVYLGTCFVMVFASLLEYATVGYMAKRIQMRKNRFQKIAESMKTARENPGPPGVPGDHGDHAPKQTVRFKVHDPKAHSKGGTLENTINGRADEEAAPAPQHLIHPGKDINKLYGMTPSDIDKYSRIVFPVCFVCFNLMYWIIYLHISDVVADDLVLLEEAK

AmRDL receptor [2] = target: T2, AmRDL receptor (Apis mellifera, UniProt A0A8U0Y4W2); experiment: two-electrode voltage clamp, Xenopus oocytes; assay type: cell-based
T2 sequence (A0A8U0Y4W2 19-476): T1 sequence (A0A8U0Y4W2 19-476 F191A)

NCCCC(=O)O [GABA]
EC50 (AmRDL receptor [1]): 1000 µM | EC50 (AmRDL receptor [2]): 10 µM
